Experimental data: US20260364080A1, “PYRAZOLO-PYRIMIDINONE COMPOUNDS FOR USE IN METHODS OF INHIBITING WEE1 A KINASE” (Acrivon Therapeutics, Inc., priority 2023, published 2026)

How the values were obtained:
[1] = tested on: DAOY cells; experiment: Cell Titer Glo viability assay, DAOY cells; type: cell-based; settings: Homo sapiens, 144 h, absolute EC50
Experimental: (§1) Each of an ACHN renal cell carcinoma cell line (ATCC) and a DAOY medulloblastoma cell line, and an A427 lung cancer line were cultured in Minimum Essential Medium Eagle supplemented with 10% fetal calf serum (Sigma), 1% Penicillin-Streptomycin and 10 mM HEPES buffer (HyClone). Cell cultures were kept in a humidified incubator at 37 °C and 5% CO2. Cells were routinely tested for Mycoplasma contamination.
(§2) ACHN cells, DAOY cells, or A427 cells were seeded at a density of 400, 250, or 500 cells per well respectively, in tissue culture treated 384 well plates (Corning Costar). After overnight incubation, cells were treated with drugs at concentrations ranging from 17 to 10 000 nM. Viability compared to untreated control was assessed at 144 h using Cell Titer Glo assay 2.0 (Promega). […] “NT” means the compounds was not tested in the indicated cells.

[2] = target: T1, Myt1 kinase (recombinant PMYT-1) (Homo sapiens, UniProt Q99640); experiment: Myt1 kinase binding assay (LanthaScreen Eu Kinase Binding Assay); settings: 3 nM tracer 178, 2.5 nM PMYT-1, 1 nM Eu-labeled antibody; read-out: Myt1 kinase Binding IC50
T1 construct: full length PMYT-1 was expressed by baculovirus in insect cells; purchased Invitrogen A30984; host or cells: insect cells (baculovirus)
T1 sequence (Q99640 1-499): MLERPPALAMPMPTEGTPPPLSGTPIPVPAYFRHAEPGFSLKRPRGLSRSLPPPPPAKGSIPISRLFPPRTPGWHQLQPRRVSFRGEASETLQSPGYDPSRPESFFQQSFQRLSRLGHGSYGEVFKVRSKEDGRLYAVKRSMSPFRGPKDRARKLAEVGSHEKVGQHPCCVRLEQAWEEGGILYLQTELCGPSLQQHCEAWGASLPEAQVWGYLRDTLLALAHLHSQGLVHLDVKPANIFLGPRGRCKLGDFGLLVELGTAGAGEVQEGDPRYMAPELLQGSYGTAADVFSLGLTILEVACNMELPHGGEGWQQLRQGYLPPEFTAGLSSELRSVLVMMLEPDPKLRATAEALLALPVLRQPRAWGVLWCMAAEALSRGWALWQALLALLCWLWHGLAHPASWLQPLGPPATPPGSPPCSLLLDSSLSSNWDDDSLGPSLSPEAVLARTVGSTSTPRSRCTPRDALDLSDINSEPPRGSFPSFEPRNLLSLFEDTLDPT
Summary of the method: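 Compound binding to Myt1 kinase was assessed using the LanthaScreen Eu Kinase Binding Assay. This europium-based binding format was applied to quantify how strongly each compound bound to the Myt1 enzyme, and the binding affinity was reported for each compound as an IC50 value.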

[3] = tested on: A427 cells; experiment: Cell Titer Glo viability assay, A427 cells; type: cell-based; settings: Homo sapiens, A-427, 144 h, absolute EC50
Experimental: as §1, §2

[4] = tested on: ACHN cells; experiment: Cell Titer Glo viability assay, ACHN cells; type: cell-based; settings: Homo sapiens, 144 h, absolute EC50
Summary of the method: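 Cells grown in MEM with 10% FCS were seeded at 500 (A427), 400 (ACHN) or 250 (DAOY) per well and treated the next day with compound at 17 to 10 000 nM. Viability relative to untreated control was read at 144 h by CellTiter-Glo 2.0.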

[5] = target: T2, recombinant human Wee1A kinase (Homo sapiens, UniProt P30291); experiment: Wee1A kinase binding assay (LanthaScreen Eu time-resolved FRET); settings: 30 nM tracer 178, 5 nM Wee1A kinase, 2 nM Eu-labeled antibody; 60 minutes at room temperature; read-out: Wee1A kinase Binding IC50
T2 construct: full length Wee1 kinase was expressed by baculovirus in insect cells; purchased Invitrogen PV3817; host or cells: insect cells (baculovirus)
T2 sequence (P30291 whole entry): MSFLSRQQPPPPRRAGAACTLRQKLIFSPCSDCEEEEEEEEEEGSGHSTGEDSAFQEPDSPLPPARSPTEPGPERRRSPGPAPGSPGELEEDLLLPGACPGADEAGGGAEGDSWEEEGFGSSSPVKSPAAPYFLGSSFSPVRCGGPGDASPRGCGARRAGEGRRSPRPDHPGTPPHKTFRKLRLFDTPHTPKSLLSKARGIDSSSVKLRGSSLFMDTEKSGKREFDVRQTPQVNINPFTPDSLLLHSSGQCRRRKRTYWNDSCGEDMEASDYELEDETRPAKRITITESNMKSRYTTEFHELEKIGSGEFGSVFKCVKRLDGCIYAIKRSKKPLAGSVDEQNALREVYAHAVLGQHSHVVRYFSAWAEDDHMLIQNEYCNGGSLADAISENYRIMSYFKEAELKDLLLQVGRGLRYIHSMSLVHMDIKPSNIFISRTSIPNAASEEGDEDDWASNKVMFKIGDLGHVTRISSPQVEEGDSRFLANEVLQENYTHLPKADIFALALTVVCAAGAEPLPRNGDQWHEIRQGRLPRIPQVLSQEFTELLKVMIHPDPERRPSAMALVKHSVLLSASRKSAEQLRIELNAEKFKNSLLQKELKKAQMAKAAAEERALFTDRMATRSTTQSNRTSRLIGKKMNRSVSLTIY
Summary of the method: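 Full-length, baculovirus-expressed GST-tagged Wee1A (5 nM) was mixed with 2 nM Eu-anti-GST antibody, 30 nM kinase tracer 178 and compound (1% DMSO). Buffer was 50 mM HEPES pH 7.5, 10 mM MgCl2, 1 mM EGTA, 0.01% Brij-35, incubated 60 min at room temperature. TR-FRET 665/615 nm emission ratios from duplicates were curve-fitted.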

[6] = target: T3, Wee1A kinase (CDK1 Tyr15 phosphorylation in ACHN renal cell carcinoma cells) (Homo sapiens, UniProt P30291); experiment: High-content imaging of pCdk1 Y15, Wee1A kinase target engagement in ACHN cells; type: cell-based; settings: 4 h treatment, nuclear positivity for pCdk1 Y15 vs DMSO control, read-out: CDK1 Tyr15 Phosphorylation EC50
T3 construct: pCDK1 Tyr15 immunofluorescence read-out
T3 sequence (P30291 whole entry): as above
Summary of the method: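 EC50 values come from the per-well fraction of cells with nuclear pCdk1 Y15 staining, normalised to DMSO control, by automated immunofluorescence imaging. Cells were ACHN renal carcinoma, treated 4 h with compound at 7–5,000 nM or 0.3–200 nM.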

[7] = target: T4, Myt1 kinase (CDK1 Thr14 phosphorylation in DAOY medulloblastoma cells) (Homo sapiens, UniProt Q99640); experiment: AlphaLISA assay, Myt1 kinase target engagement (phospho-CDK1 Thr14) in DAOY cells; type: cell-based; settings: 4 h treatment, read-out: CDK1 Thr14 Phosphorylation EC50
T4 construct: pCDK1 Thr14 AlphaLISA read-out
T4 sequence (Q99640 1-499): T1 sequence (Q99640 1-499)
Summary of the method: (§3)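 Cells seeded at 10,000 (DAOY) or 20,000 (ACHN) per well, treated 24 h later for 4 h with compound at 7–5000 nM. Lysates analysed by AlphaLISA SureFire Ultra phospho-CDK1 (Thr14) with donor/acceptor beads; EC50 from dose-response curves.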

[8] = target: T5, Myt1 kinase (CDK1 Thr14 phosphorylation in ACHN renal cell carcinoma cells) (Homo sapiens, UniProt Q99640); experiment: AlphaLISA assay, Myt1 kinase target engagement (phospho-CDK1 Thr14) in ACHN cells; type: cell-based; settings: ACHN cells (marked *); 4 h treatment
T5 construct: pCDK1 Thr14 AlphaLISA read-out
T5 sequence (Q99640 1-499): T1 sequence (Q99640 1-499)
Summary of the method: as §3

IC50 [2] [nM] | EC50 [4] [nM] | IC50 [5] [nM] | EC50 [6] [nM] | EC50 [7] [nM] | EC50 [8] [nM] | SMILES | EC50 [1] [nM] | EC50 [3] [nM]
20 to 100 | ≤ 100 | < 10 | < 100 | 200 to 500 |  | C=CCn1c(=O)c2cnc(Nc3ccc(OCCF)cc3)nc2n1-c1cccc(OC2CCNCC2)n1 [Compound 233, 2-allyl-6-((4-(2-fluoroethoxy)phenyl)amino)-1-(6-(piperidin-4-yloxy)pyridin-2-yl)-1,2-dihydro-3H-pyrazolo[3,4-d]pyrimidin-3-one] | ≤ 100 | ≤ 100
20 to 100 | ≤ 100 | < 10 | < 100 | 200 to 500 |  | C=CCn1c(=O)c2cnc(Nc3ccc(OCC(F)(F)F)cc3)nc2n1-c1cccc(OC2CCN(C)CC2)n1 [Compound 291, 2-allyl-1-[6-(1-methyl-4-piperidyloxy)-2-pyridyl]-6-[p-(2,2,2-trifluoroethoxy)phenylamino]-1,2-dihydro-3H-1,2,5,7-tetraazainden-3-one] | ≤ 100 | ≤ 100
20 to 100 | ≤ 100 | < 10 | < 100 | 200 to 500 |  | C=CCn1c(=O)c2cnc(Nc3cccc(C)c3)nc2n1-c1cccc(OC2CCNCC2)n1 [Compound 296, 2-allyl-1-(6-(piperidin-4-yloxy)pyridin-2-yl)-6-(m-tolylamino)-1,2-dihydro-3H-pyrazolo[3,4-d]pyrimidin-3-one] | ≤ 100 | ≤ 100
< 20 | ≤ 100 | < 10 | < 100 | 200 to 500 |  | C=CCn1c(=O)c2cnc(Nc3ccc(Cl)cc3)nc2n1-c1cccc(OC2CCN(C)CC2)n1 [Compound 142, 2-allyl-6-((4-chlorophenyl)amino)-1-(6-((1-methylpiperidin-4-yl)oxy)pyridin-2-yl)-1,2-dihydro-3H-pyrazolo[3,4-d]pyrimidin-3-one] | 100 to 500 | 100 to 500
20 to 100 | ≤ 100 | < 10 | < 100 |  |  | C=CCn1c(=O)c2cnc(Nc3cnn(C)c3)nc2n1-c1cccc(OC2CCN(C)CC2)n1 [Compound 137, 2-allyl-1-[6-(1-methyl-4-piperidyloxy)-2-pyridyl]-6-(1-methyl-4-pyrazolylamino)-1,2-dihydro-3H-1,2,5,7-tetraazainden-3-one] |  | ≤ 100
100 to 500 | ≤ 100 | < 10 | < 100 |  |  | C=CCn1c(=O)c2cnc(Nc3cc(C)cc(F)c3)nc2n1-c1cccc(NC2CCN(C)CC2)n1 [Compound 161, 2-allyl-6-(3-fluoro-5-toluidino)-1-[6-(1-methyl-4-piperidylamino)-2-pyridyl]-1,2-dihydro-3H-1,2,5,7-tetraazainden-3-one] |  | 100 to 500
20 to 100 | ≤ 100 | < 10 | < 100 | 200 to 500 |  | C=CCn1c(=O)c2cnc(Nc3ccc4c(c3)OCO4)nc2n1-c1cccc(OC2CCN(C)CC2)n1 [Compound 307, 2-allyl-6-(2H-1,3-benzodioxol-5-ylamino)-1-[6-(1-methyl-4-piperidyloxy)-2-pyridyl]-1,2-dihydro-3H-1,2,5,7-tetraazainden-3-one] | ≤ 100 | 
20 to 100 | ≤ 100 | < 10 | < 100 |  | 200 to 500 | C=CCn1c(=O)c2cnc(Nc3ccc4c(ccn4C)c3)nc2n1-c1cccc(OC2CCN(C)CC2)n1 [Compound 186, 2-allyl-6-((1-methyl-1H-indol-5-yl)amino)-1-(6-((1-methylpiperidin-4-yl)oxy)pyridin-2-yl)-1,2-dihydro-3H-pyrazolo[3,4-d]pyrimidin-3-one] | ≤ 100 | 
20 to 100 | ≤ 100 | < 10 | < 100 | 200 to 500 |  | C=CCn1c(=O)c2cnc(Nc3ccc4c(ccn4C)c3)nc2n1-c1cccc(OC2CCNCC2)n1 [Compound 236, 2-allyl-6-((1-methyl-1H-indol-5-yl)amino)-1-(6-(piperidin-4-yloxy)pyridin-2-yl)-1,2-dihydro-3H-pyrazolo[3,4-d]pyrimidin-3-one] | ≤ 100 | 
